Measurements reported in ChEMBL document CHEMBL1201862, “PubChem BioAssay data set” (2004).
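Grown in 96-well plates, cells were treated for 48 hours with each compound at five concentrations. Insufficient inhibition: endpoint recorded as highest concentration tested. The concentration for 50% growth inhibition is given as GI50.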 Calls of active or inactive are those of the source. No stated cut-off is given here; in the data, active = GI50 up to about 1.1 µM and inactive = higher.

What was measured:
Experiment in all cases: DTP human tumour cell line panel, 48 h
786-0 = system: 786-0
A498 = system: A498
A549 = system: A549
ACHN = system: ACHN
BT-549 = system: BT-549
CAKI-1 = system: CAKI-1
CCRF-CEM = system: CCRF-CEM
COLO 205 = system: COLO 205
DU-145 = system: DU-145
EKVX = system: EKVX
HCC 2998 = system: HCC 2998
HCT-116 = system: HCT-116
HCT-15 = system: HCT-15
HOP-62 = system: HOP-62
HT-29 = system: HT-29
Hs-578T = system: Hs-578T
IGROV-1 = system: IGROV-1
K562 = system: K562
KM12 = system: KM12
LOX IMVI = system: LOX IMVI
M14 = system: M14
MCF7 = system: MCF7
MDA-MB-231 = system: MDA-MB-231
MDA-MB-435 = system: MDA-MB-435
MDA-N = system: MDA-N
MOLT-4 = system: MOLT-4
Malme-3M = system: Malme-3M
NCI-H226 = system: NCI-H226
NCI-H460 = system: NCI-H460
NCI-H522 = system: NCI-H522
NCI/ADR-RES = system: NCI/ADR-RES
OVCAR-3 = system: OVCAR-3
OVCAR-4 = system: OVCAR-4
OVCAR-5 = system: OVCAR-5
OVCAR-8 = system: OVCAR-8
PC-3 = system: PC-3
RPMI-8226 = system: RPMI-8226
RXF 393 = system: RXF 393
SF-268 = system: SF-268
SF-295 = system: SF-295
SK-MEL-28 = system: SK-MEL-28
SK-MEL-2 = system: SK-MEL-2
SK-MEL-5 = system: SK-MEL-5
SK-OV-3 = system: SK-OV-3
SN12C = system: SN12C
SNB-19 = system: SNB-19
SNB-75 = system: SNB-75
SR = system: SR
SW-620 = system: SW-620
T47D = system: T47D
TK-10 = system: TK-10
U-251 = system: U-251
UACC-257 = system: UACC-257
UACC-62 = system: UACC-62
UO-31 = system: UO-31
HL-60 = system: HL-60
NCI-H23 = system: NCI-H23
SF-539 = system: SF-539
HOP-92 = system: HOP-92

## O=C1c2cc(Cl)ccc2-n2c(noc2=O)C2CSCN12 (stereo unspecified)
786-0
  GI50: > 100 µM (inactive)
A498
  GI50: > 100 µM (inactive)
A549
  GI50: > 100 µM (inactive)
ACHN
  GI50: > 100 µM (inactive)
BT-549
  GI50: > 100 µM (inactive)
CAKI-1
  GI50: > 100 µM (inactive)
CCRF-CEM
  GI50: > 100 µM (inactive)
COLO 205
  GI50: > 100 µM (inactive)
DU-145
  GI50: > 100 µM (inactive)
EKVX
  GI50: > 100 µM (inactive)
HCC 2998
  GI50: > 100 µM (inactive)
HCT-116
  GI50: > 100 µM (inactive)
HCT-15
  GI50: > 100 µM
HOP-62
  GI50: > 100 µM (inactive)
HT-29
  GI50: > 100 µM (inactive)
Hs-578T
  GI50: > 100 µM (inactive)
IGROV-1
  GI50: > 100 µM (inactive)
K562
  GI50: 55.7 µM (inactive)
KM12
  GI50: > 100 µM (inactive)
LOX IMVI
  GI50: > 100 µM (inactive)
M14
  GI50: > 100 µM (inactive)
MCF7
  GI50: > 100 µM (inactive)
MDA-MB-231
  GI50: > 100 µM (inactive)
MDA-MB-435
  GI50: > 100 µM (inactive)
MDA-N
  GI50: > 100 µM (inactive)
MOLT-4
  GI50: > 100 µM (inactive)
Malme-3M
  GI50: > 100 µM (inactive)
NCI-H226
  GI50: > 100 µM (inactive)
NCI-H460
  GI50: > 100 µM (inactive)
NCI-H522
  GI50: > 100 µM (inactive)
NCI/ADR-RES
  GI50: > 100 µM (inactive)
OVCAR-3
  GI50: > 100 µM (inactive)
OVCAR-4
  GI50: > 100 µM (inactive)
OVCAR-5
  GI50: > 100 µM (inactive)
OVCAR-8
  GI50: > 100 µM (inactive)
PC-3
  GI50: > 100 µM (inactive)
RPMI-8226
  GI50: > 100 µM (inactive)
RXF 393
  GI50: > 100 µM (inactive)
SF-268
  GI50: > 100 µM (inactive)
SF-295
  GI50: > 100 µM (inactive)
SK-MEL-28
  GI50: > 100 µM (inactive)
SK-MEL-2
  GI50: > 100 µM (inactive)
SK-MEL-5
  GI50: > 100 µM (inactive)
SK-OV-3
  GI50: > 100 µM (inactive)
SN12C
  GI50: > 100 µM (inactive)
SNB-19
  GI50: > 100 µM (inactive)
SNB-75
  GI50: > 100 µM (inactive)
SR
  GI50: > 100 µM (inactive)
SW-620
  GI50: > 100 µM (inactive)
T47D
  GI50: > 100 µM (inactive)
TK-10
  GI50: > 100 µM (inactive)
U-251
  GI50: > 100 µM (inactive)
UACC-257
  GI50: > 100 µM (inactive)
UACC-62
  GI50: > 100 µM (inactive)
UO-31
  GI50: > 100 µM (inactive)

## CO[C@H]1c2cccc3cccc(c23)[C@@H]1n1[nH]c(=O)n(C(C)(C)C)c1=O
786-0
  GI50: > 100 µM (inactive)
A498
  GI50: > 100 µM (inactive)
A549
  GI50: > 100 µM (inactive)
BT-549
  GI50: > 100 µM (inactive)
CAKI-1
  GI50: > 100 µM (inactive)
CCRF-CEM
  GI50: > 100 µM (inactive)
COLO 205
  GI50: > 100 µM (inactive)
DU-145
  GI50: > 100 µM (inactive)
EKVX
  GI50: > 100 µM (inactive)
HCC 2998
  GI50: > 100 µM (inactive)
HCT-116
  GI50: > 100 µM (inactive)
HCT-15
  GI50: > 100 µM
HL-60
  GI50: > 100 µM (inactive)
HT-29
  GI50: > 100 µM (inactive)
Hs-578T
  GI50: > 100 µM (inactive)
IGROV-1
  GI50: > 100 µM (inactive)
K562
  GI50: > 100 µM (inactive)
KM12
  GI50: > 100 µM (inactive)
LOX IMVI
  GI50: > 100 µM (inactive)
M14
  GI50: > 100 µM (inactive)
MCF7
  GI50: > 100 µM (inactive)
MDA-MB-231
  GI50: > 100 µM (inactive)
MDA-MB-435
  GI50: > 100 µM (inactive)
MDA-N
  GI50: > 100 µM (inactive)
MOLT-4
  GI50: > 100 µM (inactive)
Malme-3M
  GI50: > 100 µM (inactive)
NCI-H226
  GI50: > 100 µM (inactive)
NCI-H23
  GI50: > 100 µM (inactive)
NCI-H460
  GI50: > 100 µM (inactive)
NCI-H522
  GI50: > 100 µM (inactive)
NCI/ADR-RES
  GI50: > 100 µM (inactive)
OVCAR-3
  GI50: > 100 µM (inactive)
OVCAR-4
  GI50: > 100 µM (inactive)
OVCAR-5
  GI50: > 100 µM (inactive)
OVCAR-8
  GI50: > 100 µM (inactive)
PC-3
  GI50: > 100 µM (inactive)
RPMI-8226
  GI50: > 100 µM (inactive)
RXF 393
  GI50: > 100 µM (inactive)
SF-268
  GI50: > 100 µM (inactive)
SF-539
  GI50: > 100 µM (inactive)
SK-MEL-28
  GI50: > 100 µM (inactive)
SK-MEL-2
  GI50: > 100 µM (inactive)
SK-OV-3
  GI50: > 100 µM (inactive)
SN12C
  GI50: > 100 µM (inactive)
SNB-19
  GI50: > 100 µM (inactive)
SNB-75
  GI50: > 100 µM (inactive)
SR
  GI50: > 100 µM (inactive)
SW-620
  GI50: > 100 µM (inactive)
T47D
  GI50: > 100 µM (inactive)
TK-10
  GI50: > 100 µM (inactive)
U-251
  GI50: > 100 µM (inactive)
UACC-257
  GI50: > 100 µM (inactive)
UACC-62
  GI50: > 100 µM (inactive)
UO-31
  GI50: 69.8 µM (inactive)

## O=C1C(Nc2ccccc2)=CC2=NCCc3n[nH]c1c32
786-0
  GI50: 38.5 µM (inactive)
A498
  GI50: 61.4 µM (inactive)
A549
  GI50: 84.9 µM (inactive)
ACHN
  GI50: 55.6 µM (inactive)
BT-549
  GI50: 40.8 µM (inactive)
CAKI-1
  GI50: 72.6 µM (inactive)
CCRF-CEM
  GI50: 22.3 µM (inactive)
COLO 205
  GI50: 33.1 µM (inactive)
DU-145
  GI50: 64 µM (inactive)
EKVX
  GI50: 41.1 µM (inactive)
HCC 2998
  GI50: 34.8 µM (inactive)
HCT-116
  GI50: 18 µM (inactive)
HCT-15
  GI50: 19.8 µM
HL-60
  GI50: 21.1 µM (inactive)
HOP-62
  GI50: 91.2 µM (inactive)
HOP-92
  GI50: 45.8 µM (inactive)
HT-29
  GI50: 37 µM (inactive)
Hs-578T
  GI50: 42.2 µM (inactive)
IGROV-1
  GI50: 37.8 µM (inactive)
K562
  GI50: 38.5 µM (inactive)
KM12
  GI50: 20.4 µM (inactive)
LOX IMVI
  GI50: 13.9 µM (inactive)
M14
  GI50: 46.8 µM (inactive)
MCF7
  GI50: 26.7 µM (inactive)
MDA-MB-231
  GI50: 34.8 µM (inactive)
MDA-MB-435
  GI50: 17.2 µM (inactive)
MDA-N
  GI50: 16.3 µM (inactive)
MOLT-4
  GI50: 30.1 µM (inactive)
Malme-3M
  GI50: 14.4 µM (inactive)
NCI-H23
  GI50: 33.9 µM (inactive)
NCI-H460
  GI50: 35.9 µM (inactive)
NCI-H522
  GI50: 32.5 µM (inactive)
NCI/ADR-RES
  GI50: 28.6 µM (inactive)
OVCAR-3
  GI50: 25 µM (inactive)
OVCAR-4
  GI50: 27.2 µM (inactive)
OVCAR-5
  GI50: > 100 µM (inactive)
OVCAR-8
  GI50: 21 µM (inactive)
PC-3
  GI50: 33.1 µM (inactive)
RPMI-8226
  GI50: 26.4 µM (inactive)
RXF 393
  GI50: > 100 µM (inactive)
SF-268
  GI50: 65.2 µM (inactive)
SF-295
  GI50: 38.6 µM (inactive)
SF-539
  GI50: 35.7 µM (inactive)
SK-MEL-28
  GI50: 68.1 µM (inactive)
SK-MEL-2
  GI50: 61.7 µM (inactive)
SK-MEL-5
  GI50: 18.5 µM (inactive)
SK-OV-3
  GI50: > 100 µM (inactive)
SN12C
  GI50: 34.8 µM (inactive)
SNB-19
  GI50: 63.8 µM (inactive)
SNB-75
  GI50: > 100 µM (inactive)
SR
  GI50: 25.2 µM (inactive)
SW-620
  GI50: 34.4 µM (inactive)
T47D
  GI50: 34.4 µM (inactive)
TK-10
  GI50: > 100 µM (inactive)
U-251
  GI50: 37.4 µM (inactive)
UACC-62
  GI50: 21.5 µM (inactive)
UO-31
  GI50: 55.8 µM (inactive)
